#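 Method: 48-hour compound exposure of cells in 96-well plates, five concentrations, linear interpolation of endpoints. GI50: concentration for 50% inhibition of growth. Definition used: TGI = concentration required for complete inhibition of growth.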
# Experiments:
# Experiment in all cases: NCI anticancer screen, dose series, 48 h
# [1] = tested on: 786-0 renal
# [2] = tested on: A498 renal
# [3] = tested on: A549 NSCLC
# [4] = tested on: ACHN renal
# [5] = tested on: BT-549 breast
# [6] = tested on: CCRF-CEM leukemia
# [7] = tested on: COLO 205 colon
# [8] = tested on: DU-145 prostate
# [9] = tested on: EKVX NSCLC
# [10] = tested on: HCC-2998 colon
# [11] = tested on: HCT-116 colon
# [12] = tested on: HCT-15 colon
# [13] = tested on: HL-60(TB) leukemia
# [14] = tested on: HOP-62 NSCLC
# [15] = tested on: HOP-92 NSCLC
# [16] = tested on: HS 578T breast
# [17] = tested on: HT29 colon
# [18] = tested on: IGROV1 ovarian
# [19] = tested on: K-562 leukemia
# [20] = tested on: KM12 colon
# [21] = tested on: LOX IMVI melanoma
# [22] = tested on: M14 melanoma
# [23] = tested on: MALME-3M melanoma
# [24] = tested on: MCF7 breast
# [25] = tested on: MDA-MB-231 breast
# [26] = tested on: MDA-MB-435
# [27] = tested on: MOLT-4 leukemia
# [28] = tested on: NCI-H226 lung
# [29] = tested on: NCI-H23 lung
# [30] = tested on: NCI-H460 lung
# [31] = tested on: NCI-H522 lung
# [32] = tested on: NCI/ADR-RES ovarian
# [33] = tested on: OVCAR-3 ovarian
# [34] = tested on: OVCAR-4 ovarian
# [35] = tested on: OVCAR-5 ovarian
# [36] = tested on: OVCAR-8 ovarian
# [37] = tested on: PC-3 prostate
# [38] = tested on: RPMI-8226 leukemia
# [39] = tested on: RXF 393 renal
# [40] = tested on: SF-268 CNS
# [41] = tested on: SF-295 CNS
# [42] = tested on: SF-539 CNS
# [43] = tested on: SK-MEL-2 melanoma
# [44] = tested on: SK-MEL-28 melanoma
# [45] = tested on: SK-MEL-5 melanoma
# [46] = tested on: SK-OV-3 ovarian
# [47] = tested on: SN12C renal
# [48] = tested on: SNB-19 CNS
# [49] = tested on: SNB-75 CNS
# [50] = tested on: SW-620 colon
# [51] = tested on: T-47D breast
# [52] = tested on: TK-10 renal
# [53] = tested on: U251 CNS
# [54] = tested on: UACC-257 melanoma
# [55] = tested on: UACC-62 melanoma
# [56] = tested on: UO-31 renal
smiles,measurement,setting,value
CC(=O)c1cc2c(c(O)c1C)C(=O)C(=O)c1c(O)cccc1-2,GI50,[1],421 nM
same,TGI,[1],897 nM
same,GI50,[2],962 nM
same,TGI,[2],2380 nM
same,GI50,[3],565 nM
same,TGI,[3],1240 nM
same,GI50,[4],289 nM
same,TGI,[4],1120 nM
same,GI50,[5],140 nM
same,TGI,[5],274 nM
same,GI50,[6],460 nM
same,TGI,[6],> 100000 nM
same,GI50,[7],342 nM
same,TGI,[7],872 nM
same,GI50,[8],56.8 nM
same,TGI,[8],102 nM
same,GI50,[9],673 nM
same,TGI,[9],3360 nM
same,GI50,[10],330 nM
same,TGI,[10],776 nM
same,GI50,[11],216 nM
same,TGI,[11],506 nM
same,GI50,[12],113 nM
same,TGI,[12],302 nM
same,GI50,[13],89.5 nM
same,TGI,[13],271 nM
same,GI50,[14],175 nM
same,TGI,[14],365 nM
same,GI50,[15],906 nM
same,TGI,[15],1880 nM
same,GI50,[16],248 nM
same,TGI,[16],1300 nM
same,GI50,[17],319 nM
same,TGI,[17],1490 nM
same,GI50,[18],521 nM
same,TGI,[18],1340 nM
same,GI50,[19],281 nM
same,TGI,[19],1050 nM
same,GI50,[20],411 nM
same,TGI,[20],1740 nM
same,GI50,[21],53.9 nM
same,TGI,[21],101 nM
same,GI50,[22],60.5 nM
same,TGI,[22],121 nM
same,GI50,[23],65.4 nM
same,TGI,[23],139 nM
same,GI50,[24],57.6 nM
same,TGI,[24],134 nM
same,GI50,[25],277 nM
same,TGI,[25],2260 nM
same,GI50,[26],56.3 nM
same,TGI,[26],107 nM
same,GI50,[27],348 nM
same,TGI,[27],1440 nM
same,GI50,[28],554 nM
same,TGI,[28],1050 nM
same,GI50,[29],66.6 nM
same,TGI,[29],154 nM
same,GI50,[30],460 nM
same,TGI,[30],1090 nM
same,GI50,[31],281 nM
same,TGI,[31],888 nM
same,GI50,[32],360 nM
same,TGI,[32],1390 nM
same,GI50,[33],76.8 nM
same,TGI,[33],280 nM
same,GI50,[34],199 nM
same,TGI,[34],636 nM
same,GI50,[35],526 nM
same,TGI,[35],1010 nM
same,GI50,[36],308 nM
same,TGI,[36],936 nM
same,GI50,[37],510 nM
same,TGI,[37],2030 nM
same,GI50,[38],615 nM
same,TGI,[38],1900 nM
same,GI50,[39],157 nM
same,TGI,[39],416 nM
same,GI50,[40],133 nM
same,TGI,[40],471 nM
same,GI50,[41],290 nM
same,TGI,[41],763 nM
same,GI50,[42],150 nM
same,TGI,[42],285 nM
same,GI50,[43],272 nM
same,TGI,[43],922 nM
same,GI50,[44],163 nM
same,TGI,[44],365 nM
same,GI50,[45],56.5 nM
same,TGI,[45],105 nM
same,GI50,[46],565 nM
same,TGI,[46],1120 nM
same,GI50,[47],59.2 nM
same,TGI,[47],117 nM
same,GI50,[48],163 nM
same,TGI,[48],345 nM
same,GI50,[49],153 nM
same,TGI,[49],301 nM
same,GI50,[50],120 nM
same,TGI,[50],387 nM
same,GI50,[51],554 nM
same,TGI,[51],3170 nM
same,GI50,[52],560 nM
same,TGI,[52],1010 nM
same,GI50,[53],247 nM
same,TGI,[53],659 nM
same,GI50,[54],188 nM
same,TGI,[54],366 nM
same,GI50,[55],164 nM
same,TGI,[55],354 nM
same,GI50,[56],247 nM
same,TGI,[56],742 nM

# Reference: PubChem BioAssay (NCI)
